Entries after “also recorded” stand apart in the source; their conditions may differ. Where no end group is shown, it is not given here.
Key:
Assay type in all cases: in vivo, mouse
[1] = tested on: C57BL/6 mice; experiment: 14-day chronic i.c.v. infusion via Alzet mini-osmotic pumps
Experimental: FIG. 4 depicts treatment of C57BL/6 mice with either vehicle (aCSF); 12, 36 or 120 μg NMU/day; or 4.8 μg MTII/day for 14 days via Alzet mini-osmotic pumps implanted subcutaneously in the intrascapular space and connected with a catheter to a permanent indwelling i.c.v cannula implanted in the dorsal third cerebroventricle. 14-day cumulative effects on body weight (A), adiposity (B) and food intake (C). *, P<0.05 vs. vehicle; n=5-8 per group.
Mice were anesthetized with an intramuscular (im) injection of ketamine (100 mg/kg) and domitor (0.75 mg/kg) and placed in a stereotactic device (Kopf Instruments). For acute i.c.v. studies, a 26-gauge single acute guide cannula (Plastics One) was implanted into the dorsal third cerebral ventricle (0.22 mm posterior, 0.3 mm lateral and 3.3 mm ventral to bregma) and secured to the skull with cyanoacrylate adhesive followed by dental cement. Following surgery, a 33-gauge dummy cannula (Plastics One) was inserted into each guide cannula and mice were given an im injection of atapimazole (5 mg/kg). All cannulated mice were given one week of postoperative recovery, during which time they were handled daily to minimize nonspecific stress. All substances were administered to conscious mice with a repeating dispenser (Hamilton) equipped with a 50-μl Hamilton syringe and 33-gauge needle designed to extend 0.1-0.2 mm beyond the tip of the guide cannula. Mouse NMU-23 (Phoenix Pharmaceuticals) was dissolved in artificial cerebrospinal fluid (aCSF; Harvard Apparatus) and adjusted the pH to ˜7 with NaOH. All substances were injected in a total volume of 1 μl. Mice were given at least a 48-h recovery period between treatments. All acute icv injection studies were of crossover design, a paradigm in which mice initially treated with vehicle are subsequently treated with the agent of interest dissolved in vehicle and vice versa. For chronic icv studies, a 28-gauge osmotic pump connector cannula (Plastics One) was implanted into the dorsal third cerebral ventricle and secured to the skull. Then a micro-osmotic pump designed to deliver 0.5 μl/h (Alza Co.) and filled with aCSF was implanted subcutaneously in the intrascapular space and connected with vinyl tubing to the osmotic pump connector cannula.
(§1) Immediately following surgery, mice were given an im injection of atapimazole. Five days following the initial surgery, mice were again anesthetized and placed in the stereotactic device. Micro-osmotic pumps were removed and replaced with mini-osmotic pumps designed to deliver 0.5 μl/h (Alza Co.) and filled with either aCSF or mouse NMU-23 (Mimotopes) or MTII (Bachem) dissolved in aCSF. The pH of all solutions was adjusted to ˜7 with NaOH. Immediately following surgery, mice were given an im injection of atapimazole. For chronic sc infusions studies, mice were anesthetized and then a micro-osmotic pump designed to deliver 0.5 μl/h and filled with either sterile H2O or mouse NMU-23 (Mimotopes) or MTII (Bachem) dissolved in sterile H2O was implanted subcutaneously in the intrascapular space. The pH of all solutions was adjusted to ˜7 with NaOH. Immediately following surgery, mice were given an im injection of atapimazole.
For acute nocturnal feeding studies, ad libitum fed male mice maintained on regular chow were weighed and dosed either intraperitoneally (ip) or icv ˜30 min prior to the onset of the dark phase of the light cycle and provided with a preweighed aliquot of chow which was then weighed two and 18 hours (overnight) after the onset of the dark phase. Mice were again weighed at the later time point. For chronic feeding studies, ad libitum fed male mice normally maintained on regular chow were switched to a palatable moderate fat diet at the initiation of treatment and food intake and body weight were measured daily. […]

[2] = tested on: C57BL/6 mice; experiment: Acute nocturnal feeding study, peripheral (i.p.) NMU in wild-type mice; settings: i.p. (peripheral) ~30 min before dark phase, measured 18 h later
Experimental: (§2) Food intake (FIG. 1A) and body weight (FIG. 1B) were measured in C57BL/6 mice dosed intraperitoneally (i.p.) either with vehicle (saline) or with NMU approximately 30 minutes prior to onset of darkness. Measurements were taken about 18 hours later. * indicates p value of <0.05, n=6 per treatment group. In FIGS. 1C and 1D, food intake and body weight are measured in Nmur1 and Nmur2 mice dosed ip with either saline or 30 mg/kg (mkg) NMU about 30 minutes prior to the onset of the dark phase. Measurements were taken 18 hrs later. *, P<0.05 vs. saline, n=6 per treatment group. Nmur1 or Nmur2 mice were dosed i.p. with either vehicle (saline) or 30 mpk NMU ˜30 min. prior to the onset of the dark phase and food intake (C) and body weights (D) were measured 18 h (overnight) later. *, P<0.05 vs. corresponding vehicle; #, P<0.05 vs. Nmu1r+/+, NMU; $, P=0.052; n=10 per treatment group.
(§3) The Nmur1 mice were maintained on a 50% C57BL/6×50% 129S6/SvEv background and Nmur2 mice (licensed from Deltagen) on a 75% C57BL/6×25% 129/OlaHsd background. For comparison with wild-type, 10-12 week-old male C57BL/6 mice were purchased from Taconic Farms. Mice were individually housed in Tecniplast cages in a conventional SPF facility. […]
All resultant measurement values were reported as mean±S.E.M. and data was analyzed by the two-tailed unpaired Student's t test. […]

[3] = tested on: C57BL/6 mice; experiment: Acute nocturnal feeding study, central (i.c.v.) NMU in wild-type mice; settings: measured 2 h later
Experimental: (§4) FIG. 2A describes results from an experiment where C57BL/6 mice were dosed intracerebronventricularly (i.c.v) with either vehicle (aCSF) or NMU ˜30 min. prior to the onset of the dark phase and food intake was measured 2 h later. *, P<0.05 vs. vehicle; n=12-24 per group. In FIG. 2B, Nmur1 or Nmur2 mice were dosed i.c.v. with either vehicle (aCSF) or 3 μg NMU ˜30 min. prior to the onset of the dark phase and food intake was measured 2 h later. *, P<0.05 vs. corresponding vehicle; #, P<0.05 vs. Nmur2+/+, NMU; n=14 per treatment group.
(§5) Mice were anesthetized with an intramuscular (im) injection of ketamine (100 mg/kg) and domitor (0.75 mg/kg) and placed in a stereotactic device (Kopf Instruments). […]
(§6) For acute nocturnal feeding studies, ad libitum fed male mice maintained on regular chow were weighed and dosed either intraperitoneally (ip) or icv ˜30 min prior to the onset of the dark phase of the light cycle and provided with a preweighed aliquot of chow which was then weighed two and 18 hours (overnight) after the onset of the dark phase. […] For chronic feeding studies, ad libitum fed male mice normally maintained on regular chow were switched to a palatable moderate fat diet at the initiation of treatment and food intake and body weight were measured daily.

[4] = tested on: diet-induced obese C57BL/6 mice; experiment: Core body temperature after acute i.p. dosing of fasted diet-induced obese mice; settings: overnight fasted DIO C57BL/6 mice, i.p. 0.3, 1, 3 or 10 mpk NMU, 6 h monitoring
Experimental: FIG. 5 presents the results of an experiment where overnight fasted diet-induced obese C57BL/6 mice were dosed i.p. with either vehicle (saline); 0.3, 1, 3 or 10 mpk NMU; or 5 mpk MTII. Core temperature is plotted as change from vehicle baseline. A, hourly change. B, 6-h cumulative change.
Body temperature changes were measured as well. Male diet-induced obese mice maintained on a high fat diet were implanted with Mini-Mitter transmitters (Mini Mitter, Bend, Oreg.) prior to the study. Temperature recordings were initiated one day prior to dosing. Mice were fasted overnight and then the following morning 3 h after the onset of the light phase mice were dosed ip. Core body temperature was monitored for 6 h following dosing.

[5] = tested on: Nmur2−/− mice; experiment: Acute central (i.c.v.) NMU administration in NMUR2 knockout mice; settings: i.c.v. 3 μg NMU, 2 h
Experimental: as §4, §5, §6

[6] = tested on: DIO mice; experiment: 13-day chronic subcutaneous infusion in DIO mice
Experimental: as §1
(§7) The Nmur1 mice were maintained on a 50% C57BL/6×50% 129S6/SvEv background and Nmur2 mice (licensed from Deltagen) on a 75% C57BL/6×25% 129/OlaHsd background. For comparison with wild-type, 10-12 week-old male C57BL/6 mice were purchased from Taconic Farms. Mice were individually housed in Tecniplast cages in a conventional SPF facility. Mice were maintained on either regular chow (Teklad 7012: 13.4% kcal from fat; Harlan Teklad), a moderate fat diet (D12266B: 32% kcal from fat; Research Diets, Inc.) or, to induce obesity (DIO), a high fat diet (D12492: 60% kcal from fat; Research Diets, Inc.) with ad libitum access to water in a 12-h light/12-h dark cycle, unless stated otherwise.

[7] = tested on: Nmur1−/− mice; experiment: Acute NMU administration (peripheral, i.p.) in NMUR1 knockout mice
Experimental: as §2
Nmur1 knockout (Nmur1^−/−) mice were generated using standard homologous recombination techniques. Briefly, a mouse genomic DNA library was screened with a mouse Nmur1mur cDNA probe, which was generated by PCR. One positive clone was isolated. Two regions of the clone were subcloned into pKO Scrambler NTKV-1904 (Stratagene) and a targeting vector was generated. The targeting vector was linearized by NotI restriction enzyme digestion and transformed into AB2.1 embryonic stem (ES) cells by electroporation with a Bio-Rad Gene Pulser. Transfected cells were cultured with G418 and FIAU for positive and negative selections, respectively. Approximately 500 clones were selected, and 20 correctly targeted ES cell clones were identified by Southern blot analysis. Five correctly targeted ES clones were injected into C57BL/6 blastocysts and these were implanted into pseudopregnant female mice. Several chimeric progeny gave germ-line transmission of the mutant NMUR1 allele and one NMUR1^−/− was established. F3 hybrid mice were used in all experiments
as §7
(§8) For acute nocturnal feeding studies, ad libitum fed male mice maintained on regular chow were weighed and dosed either intraperitoneally (ip) or icv ˜30 min prior to the onset of the dark phase of the light cycle and provided with a preweighed aliquot of chow which was then weighed two and 18 hours (overnight) after the onset of the dark phase. Mice were again weighed at the later time point. For chronic feeding studies, ad libitum fed male mice normally maintained on regular chow were switched to a palatable moderate fat diet at the initiation of treatment and food intake and body weight were measured daily.

[8] = tested on: C57BL/6 mice; experiment: 7-day chronic s.c. infusion via Alzet micro-osmotic pumps; settings: C57BL/6 mice, 0.3, 1, 3 or 10 mpk NMU/day s.c. infusion for 7 days
Excerpt: FIG. 3 describes the results from treatment of C57BL/6 mice with either vehicle (H2O); 0.3, 1, 3 or 10 mpk NMU/day; or 10 mpk MTII/day for 7 days via Alzet micro-osmotic pumps implanted sc in the intrascapular space. 7-day cumulative effects on body weight (A), adiposity (B) and food intake (C). *, P<0.05 vs. Vehicle; n=4-10 per treatment group.
as §1, §6
Whole body composition analysis of conscious live mice was conducted using a Quantitative Magnetic Resonance (QMR) method (EchoMRI™, Echo Medical Systems, Houston, Tex.) (Tinsley et al. (2004) Obesity Research 12:150). […]

[9] = tested on: Nmur2−/− mice; experiment: Acute peripheral (i.p.) NMU administration in NMUR2 knockout mice; settings: peripherally administered NMU
Experimental: as §2, §3

[10] = tested on: Nmur1−/− mice; experiment: Acute central (i.c.v.) NMU administration in NMUR1 knockout mice; settings: centrally administered NMU
Experimental: as §4, §5, §6

[11] = tested on: lean and DIO C57BL/6 mice; experiment: Ad libitum food intake of lean and DIO mice after rat NMU peptide
Experimental: as §8

[12] = C57BL/6 mice, 12, 36 or 120 μg NMU/day i.c.v. infusion for 14 days
[13] = C57BL/6 mice, 12, 36 or 120 μg NMU/day i.c.v. infusion for 14 days, listed as mouse NMU-23
[14] = Nmur1−/− transgenic mice, mouse NMU-23 peptide administration, route not stated

NMU: Mouse NMU-23 neuromedin U peptide (Phoenix Pharmaceuticals, Mimotopes), agonist of NMUR1 and NMUR2 (FKAEYQSPSVGQSKGYFLFRPRN; ends and bridges not checked; UniProt Q9QXK8 144-166, looked up)
body composition ([1]; 14-day chronic i.c.v. infusion): Effects are also seen | adiposity, 14-day cumulative [1, 12]: dose-dependent cumulative effects; also recorded: reduces | body weight, 14-day cumulative [1, 12]: dose-dependent cumulative effects; also recorded: reduces | food intake, 14-day cumulative [1, 12]: dose-dependent cumulative effects; also recorded: reduces | body weight, 14-day cumulative [1, 13]: Effects are also seen | food intake, 14-day cumulative [1, 13]: Effects are also seen | body weight [2]: dose-dependent reduction | food intake [2]: dose-dependent reduction; also recorded: reduces | food intake [3]: reduces | core body temperature (change from vehicle baseline) [4]: dose-dependent effect; also recorded: dose-dependently increases | food intake (anorectic action) [5]: do not show the same reduction; also recorded: absent | body weight [6]: demonstrable effects | core temperature [6]: demonstrable effects | food intake [6]: demonstrable effects | body weight ([7]; Nmur1 knockout mice, peripheral (i.p.) 30 mpk NMU, 18 h): not seen | food intake (anorectic action) ([7]; Nmur1 knockout mice, peripheral (i.p.) 30 mpk NMU, 18 h, 30 mg/kg): not seen; also recorded: absent | body temperature [7, 14]: largely unaffected | body weight [7, 14]: largely unaffected | food intake [7, 14]: largely unaffected | adiposity, 7-day cumulative [8]: dose-dependent effects; also recorded: reduces | body weight, 7-day cumulative [8]: dose-dependent effects; also recorded: reduces | food intake, 7-day cumulative [8]: dose-dependent effects; also recorded: reduces | anorectic actions (food intake) [9]: present | anorectic actions (food intake) [10]: present

rNMU-23: a rat NMU peptide (YKVNEYQGPVAPSGGFFLFRPRN; ends and bridges not checked; UniProt P12760 144-166, looked up)
ad libitum food intake [11]: mimic those of the mouse isoform

Source: patent US20090089889A9, “Neuromedin u receptor subtype 1 deficient transgenic mice and uses thereof” (priority 2006, published 2009)
